Measured values taken from ChEMBL document CHEMBL1149383, “Discovery of a daunorubicin analogue that exhibits potent antitumor activity and overcomes P-gp-mediated drug resistance” (J Med Chem, 2006).
Active and inactive are the calls of the source. No cut-off for these calls is given here.

Tests used:
K562 [1] = experiment: Increase in the level of drug uptake in Dox-resistant K562 cells in presence of cyclosporine over its absence; format: functional, cell-based; settings: Homo sapiens
K562 [2] = experiment: Cytotoxicity against Dox-resistant K562 cells by MTS; format: functional, cell-based; settings: Homo sapiens
Mus musculus [3] = experiment: Mortality in mice with Dox-resistant K562 xenografts in 20 days at 5-10 mg/kg, ip; format: functional
K562 [4] = experiment: Cytotoxicity against Dox-resistant K562 cells by MTS at 1 uM and in presence of cyclosporine; format: functional, Homo sapiens
K562 [5] = experiment: Increase in the level of drug efflux in Dox-resistant K562 cells in presence of cyclosporine over its absence; format: functional, cell-based; settings: Homo sapiens
K562 [6] = experiment: Cytotoxicity against Dox-resistant K562 cells by MTS at 1 uM and in absence of cyclosporine; format: functional, Homo sapiens
K562 [7] = experiment: Drug resistance index, ratio of IC50 in Dox-resistant K562 cells over Dox-sensitive cells; format: functional, Homo sapiens
K562 [8] = experiment: Increase in cytotoxicity against Dox-resistant K562 cells in presence of Cyclosporine over its absence; format: functional, cell-based; settings: Homo sapiens
KB 3-1 [9] = experiment: Cytotoxicity against drug resistant KB-V cells; format: functional, cell-based; settings: Homo sapiens
KB 3-1 [10] = experiment: Cytotoxicity against human epidermoid carcinoma KB-3-1 cells; format: functional, cell-based
Mus musculus [11] = experiment: Survival in mice with Dox-resistant K562 xenografts after 50 days at 5-10 mg/kg, ip; format: functional

| SMILES | Activity (K562 [1]) | Activity (K562 [5]) | Ratio IC50 (K562 [7]) | also measured |
| --- | --- | --- | --- | --- |
| COc1cccc2c1C(=O)c1c(O)c3c(c(O)c1C2=O)C[C@@](O)(C(C)=O)C[C@@H]3O[C@H]1C[C@H](N)[C@H](O)[C@H](C)O1 [DAUNORUBICIN] | Active | Active | 333 | IC50 (K562 [2]): > 5 µM; Activity (Mus musculus [3]): 50%; Activity (K562 [4]): 70%; Activity (K562 [6]): 30% |
| COc1cccc2c1C(=O)c1c(O)c3c(c(O)c1C2=O)C[C@@](O)(C(C)=O)C[C@@H]3O[C@H]1C[C@H](n2cc(CCCCO)nn2)[C@H](O)[C@H](C)O1 | inactive | inactive |  |  |
| COc1cccc2c1C(=O)c1c(O)c3c(c(O)c1C2=O)C[C@@](O)(C(C)=O)C[C@@H]3O[C@H]1C[C@H](n2cc(CCO)nn2)[C@H](O)[C@H](C)O1 | inactive | inactive |  |  |
| COc1cccc2c1C(=O)c1c(O)c3c(c(O)c1C2=O)C[C@@](O)(C(C)=O)C[C@@H]3O[C@H]1C[C@H](N=[N+]=[N-])[C@H](O)[C@H](C)O1 | inactive | inactive | 13 | Activity (K562 [8]): inactive; IC50 (KB 3-1 [9]): 0.3 µM; IC50 (KB 3-1 [10]): 0.3 µM; Activity (Mus musculus [11]): 100% |
| COc1cccc2c1C(=O)c1c(O)c3c(c(O)c1C2=O)C[C@@](O)(C(C)=O)C[C@@H]3O[C@H]1C[C@H](n2cc(CO)nn2)[C@H](O)[C@H](C)O1 | inactive | inactive |  |  |
| COc1cccc2c1C(=O)c1c(O)c3c(c(O)c1C2=O)C[C@@](O)(C(C)=O)C[C@@H]3O[C@H]1C[C@H](n2cc(CCCO)nn2)[C@H](O)[C@H](C)O1 | inactive | inactive |  |  |
